PubChem BioAssay AID328 (DTP/NCI, 2004)
Values joined by “and” are separate entries in the source; they are usually repeats but may differ in a detail not shown here. Equal values may be shown once. Inconclusive results and toxic doses are left out.

System: BDF1 mice, P388 leukemia ip, median survival T/C
Assay: NCI In Vivo Anticancer Drug Screen. Data for tumor model P388 Leukemia (intraperitoneal) in B6D2F1 (BDF1) mice
Settings: endpoint: median survival time, higher = longer survival
Method in brief: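 Reported as T/C, where T is the survival measurement in dosed animals and C the same measurement in vehicle controls.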

[1] = dose: 50.0 mg/kg/injection, schedule: Q01DX001 (ip), vehicle: saline with Tween-80
[2] = dose: 50.0 mg/kg/injection, schedule: Q01DX009 (ip), vehicle: saline with Tween-80
[3] = dose: 100.0 mg/kg/injection, schedule: Q01DX009 (ip), vehicle: saline with Tween-80
[4] = dose: 200.0 mg/kg/injection, schedule: Q01DX009 (ip), vehicle: saline with Tween-80
[5] = dose: 12.5 mg/kg/injection, schedule: Q04DX003 (ip), vehicle: saline
[6] = dose: 25.0 mg/kg/injection, schedule: Q04DX003 (ip), vehicle: saline
[7] = dose: 12.5 mg/kg/injection, schedule: Q01DX009 (ip), vehicle: water
[8] = dose: 12.5 mg/kg/injection, schedule: Q04DX003 (ip), vehicle: water
[9] = dose: 25.0 mg/kg/injection, schedule: Q01DX009 (ip), vehicle: water
[10] = dose: 25.0 mg/kg/injection, schedule: Q04DX003 (ip), vehicle: water
[11] = dose: 50.0 mg/kg/injection, schedule: Q01DX009 (ip), vehicle: water
[12] = dose: 50.0 mg/kg/injection, schedule: Q04DX003 (ip), vehicle: water
[13] = dose: 100.0 mg/kg/injection, schedule: Q01DX009 (ip), vehicle: water
[14] = dose: 100.0 mg/kg/injection, schedule: Q04DX003 (ip), vehicle: water
[15] = dose: 200.0 mg/kg/injection, schedule: Q04DX003 (ip), vehicle: water
[16] = dose: 100.0 mg/kg/injection, schedule: Q04DX003 (ip), vehicle: Klucel (hydroxypropylcellulose) (HPC)
[17] = dose: 200.0 mg/kg/injection, schedule: Q04DX003 (ip), vehicle: Klucel (hydroxypropylcellulose) (HPC)
[18] = dose: 0.78 mg/kg/injection, schedule: Q01DX009 (ip), vehicle: water
[19] = dose: 1.56 mg/kg/injection, schedule: Q01DX009 (ip), vehicle: water
[20] = dose: 3.12 mg/kg/injection, schedule: Q01DX009 (ip), vehicle: water
[21] = dose: 100.0 mg/kg/injection, schedule: Q04DX003 (ip), vehicle: saline with Tween-80
[22] = dose: 200.0 mg/kg/injection, schedule: Q04DX003 (ip), vehicle: saline with Tween-80
[23] = dose: 200.0 mg/kg/injection, schedule: Q01DX009 (ip), vehicle: water
[24] = dose: 400.0 mg/kg/injection, schedule: Q01DX009 (ip), vehicle: water

O=[N+]([O-])c1ccccc1C(c1ccc2ccccc2c1O)N1CCOCC1 (stereo unspecified)
T/C (dose: 33.0 mg/kg/injection, schedule: Q01DX001 (ip), vehicle: saline with Tween-80): 100 % of control | T/C (dose: 50.0 mg/kg/injection, schedule: Q01DX001 (ip), vehicle: saline sonified): 163 % of control | T/C [1]: 100 % of control | T/C (dose: 75.0 mg/kg/injection, schedule: Q01DX001 (ip), vehicle: saline with Tween-80): 100 % of control | T/C (dose: 100.0 mg/kg/injection, schedule: Q01DX001 (ip), vehicle: saline sonified): 109 % of control | T/C (dose: 200.0 mg/kg/injection, schedule: Q01DX001 (ip), vehicle: saline sonified): 95 % of control

O=C(Nc1ccc(Cl)c(Cl)c1)Nc1cc(Cl)ccc1Sc1ccc(Cl)cc1S(=O)(=O)O
T/C (dose: 25.0 mg/kg/injection, schedule: Q01DX009 (ip), vehicle: saline with Tween-80): 109 % of control | T/C [2]: 95 % of control | T/C [3]: 90 % of control

CC1(C)CCC(C)(C)c2c1ccc(O)c2Sc1c(O)ccc2c1C(C)(C)CCC2(C)C
T/C [2]: 97 % of control | T/C [3]: 97 % of control and 119 % of control | T/C [4]: 102 % of control and 104 % of control | T/C (dose: 400.0 mg/kg/injection, schedule: Q01DX009 (ip), vehicle: saline with Tween-80): 93 % of control

OCCNCCN1CCN(CCCN2c3ccccc3Sc3ccc(C(F)(F)F)cc32)CC1
T/C (dose: 6.25 mg/kg/injection, schedule: Q04DX003 (ip), vehicle: saline): 104 % of control | T/C [5]: 110 % of control | T/C [6]: 91 % of control and 110 % of control | T/C (dose: 50.0 mg/kg/injection, schedule: Q04DX003 (ip), vehicle: saline): 91 % of control

CC(=O)C1CC2C=CCC(C2)C1 (stereo unspecified)
T/C [1]: 95 % of control | T/C (dose: 100.0 mg/kg/injection, schedule: Q01DX001 (ip), vehicle: saline with Tween-80): 120 % of control | T/C (dose: 200.0 mg/kg/injection, schedule: Q01DX001 (ip), vehicle: saline with Tween-80): 95 % of control

O=c1[nH]c(=O)c2nccnc2[nH]1
T/C [7]: 86 % of control | T/C [8]: 266 % of control and 120 % of control | T/C [9]: 111 % of control | T/C [10]: 270 % of control and 113 % of control | T/C [11]: 92 % of control | T/C [12]: 266 % of control and 111 % of control | T/C [13]: 104 % of control | T/C [14]: 268 % of control and 102 % of control | T/C [15]: 95 % of control

CCOC(=O)C1CCCC23CC(CC12)C(C)(C)C3Br (stereo unspecified)
T/C [16]: 100 % of control | T/C [17]: 90 % of control | T/C (dose: 400.0 mg/kg/injection, schedule: Q04DX003 (ip), vehicle: Klucel (hydroxypropylcellulose) (HPC)): 100 % of control

O=C(NCCCCN1CC1)C(=O)NCCCCN1CC1
T/C (dose: 6.25 mg/kg/injection, schedule: Q04DX003 (ip), vehicle: Klucel (hydroxypropylcellulose) (HPC)): 188 % of control | T/C (dose: 12.5 mg/kg/injection, schedule: Q04DX003 (ip), vehicle: Klucel (hydroxypropylcellulose) (HPC)): 188 % of control | T/C (dose: 25.0 mg/kg/injection, schedule: Q04DX003 (ip), vehicle: Klucel (hydroxypropylcellulose) (HPC)): 221 % of control

NC(CCl)=NC1CCCCC1
T/C [5]: 102 % of control | T/C (dose: 22.0 mg/kg/injection, schedule: Q04DX003 (ip), vehicle: saline): 121 % of control | T/C [6]: 117 % of control | T/C (dose: 75.0 mg/kg/injection, schedule: Q04DX003 (ip), vehicle: saline): 96 % of control | T/C (dose: 100.0 mg/kg/injection, schedule: Q04DX003 (ip), vehicle: saline): 88 % of control

O=C1C=CC(=O)c2c(O)c(CO)c(CO)c(O)c21
T/C (dose: 0.19 mg/kg/injection, schedule: Q01DX009 (ip), vehicle: water): 100 % of control | T/C (dose: 0.39 mg/kg/injection, schedule: Q01DX009 (ip), vehicle: water): 108 % of control | T/C [18]: 115 % of control | T/C [19]: 102 % of control | T/C [20]: 108 % of control

CC(=O)Nc1ccc(S(=O)(=O)N2CC2)cc1
T/C (dose: 25.0 mg/kg/injection, schedule: Q01DX005 (ip), vehicle: saline): 98 % of control | T/C (dose: 50.0 mg/kg/injection, schedule: Q01DX005 (ip), vehicle: saline): 111 % of control | T/C (dose: 100.0 mg/kg/injection, schedule: Q01DX005 (ip), vehicle: saline): 98 % of control | T/C (dose: 200.0 mg/kg/injection, schedule: Q01DX005 (ip), vehicle: saline): 111 % of control

CC12CCCCC1C/C(=N/NC(N)=O)CC2 (stereo unspecified)
T/C (dose: 5.0 mg/kg/injection, schedule: Q01DX001 (ip), vehicle: saline): 100 % of control | T/C (dose: 10.0 mg/kg/injection, schedule: Q01DX001 (ip), vehicle: saline): 100 % of control | T/C (dose: 20.0 mg/kg/injection, schedule: Q01DX001 (ip), vehicle: saline): 100 % of control | T/C (dose: 40.0 mg/kg/injection, schedule: Q01DX001 (ip), vehicle: saline): 104 % of control

CCC(C(O)c1cccs1)C(O)(C(F)(F)F)C(F)(F)F (stereo unspecified)
T/C [21]: 95 % of control | T/C [22]: 100 % of control

CCOC(=O)CCCc1ccc(N=NN(C)C)cc1
T/C (dose: 150.0 mg/kg/injection, schedule: Q04DX003 (ip), vehicle: saline): 95 % of control

COc1ccc(CN)cc1OC
T/C [2]: 100 % of control | T/C [3]: 91 % of control | T/C [4]: 97 % of control

COc1cc2c3c(c1)-c1nc4ccccc4cc1CN3CCC2
T/C (dose: 12.5 mg/kg/injection, schedule: Q04DX003 (ip), vehicle: other): 100 % of control | T/C (dose: 25.0 mg/kg/injection, schedule: Q04DX003 (ip), vehicle: other): 113 % of control | T/C (dose: 50.0 mg/kg/injection, schedule: Q04DX003 (ip), vehicle: other): 109 % of control

CC1(O)c2cccc3c2C2(O)c4c1cccc4C(C)(O)c1cccc(c12)C3(C)O (stereo unspecified)
T/C (dose: 50.0 mg/kg/injection, schedule: Q04DX003 (ip), vehicle: Klucel (hydroxypropylcellulose) (HPC)): 100 % of control | T/C [16]: 105 % of control | T/C [17]: 105 % of control

CCOC(=O)Nc1nc(Cl)c(Cl)nc1Cl
T/C [18]: 105 % of control | T/C [19]: 114 % of control | T/C [20]: 96 % of control | T/C (dose: 6.25 mg/kg/injection, schedule: Q01DX009 (ip), vehicle: water): 100 % of control and 110 % of control | T/C (dose: 6.25 mg/kg/injection, schedule: Q04DX003 (ip), vehicle: water): 90 % of control | T/C [7]: 91 % of control and 95 % of control | T/C [8]: 266 % of control and 102 % of control | T/C [9]: 100 % of control | T/C [10]: 269 % of control | T/C [11]: 87 % of control and 89 % of control | T/C [12]: 266 % of control and 116 % of control | T/C [13]: 89 % of control and 95 % of control | T/C [23]: 105 % of control and 108 % of control | T/C [24]: 118 % of control

Cn1nnnc1N/N=C/c1ccccc1
T/C [21]: 110 % of control | T/C [22]: 115 % of control | T/C (dose: 400.0 mg/kg/injection, schedule: Q04DX003 (ip), vehicle: saline with Tween-80): 100 % of control

Clc1ccc(C2(C3CCNCC3)CCCO2)cc1 (stereo unspecified)
T/C [2]: 106 % of control | T/C [3]: 90 % of control

CCN=C=NCCCN(C)C
T/C (dose: 7.5 mg/kg/injection, schedule: Q01DX009 (ip), vehicle: saline): 105 % of control | T/C (dose: 15.0 mg/kg/injection, schedule: Q01DX009 (ip), vehicle: saline): 105 % of control | T/C (dose: 30.0 mg/kg/injection, schedule: Q01DX009 (ip), vehicle: saline): 94 % of control | T/C (dose: 60.0 mg/kg/injection, schedule: Q01DX009 (ip), vehicle: saline): 100 % of control

CCOC(=O)Nc1nc(NC(=O)OCC)c(Cl)nc1Cl
T/C [7]: 113 % of control | T/C [8]: 90 % of control and 104 % of control | T/C [9]: 99 % of control | T/C [10]: 92 % of control and 104 % of control | T/C [11]: 111 % of control | T/C [12]: 102 % of control | T/C [13]: 99 % of control | T/C [14]: 100 % of control and 101 % of control | T/C [23]: 90 % of control | T/C [15]: 94 % of control and 96 % of control | T/C [24]: 101 % of control | T/C (dose: 400.0 mg/kg/injection, schedule: Q04DX003 (ip), vehicle: water): 112 % of control | T/C (dose: 500.0 mg/kg/injection, schedule: Q04DX003 (ip), vehicle: water): 96 % of control
